Where two headings read alike, the source gives them in different places.
Legend:
histamine H2 receptor [1] = target: T1, histamine H2 receptor (Rattus norvegicus, UniProt P25102); assay: Competition binding assay (displacement of ^3H-tiotidine)
T1 construct: endogenous in cells
Text: (§1) All test animals were used in accordance with the National Institutes of Health Guidelines for the Care and Use of Laboratory Animals and Permission for Use of Laboratory Animals 34401-1/2010/8 and U34401-12/2013/3 issued by the Administration of the Republic of Slovenia for Food Safety, Veterinary and Plant Protection to prepare primary astrocytes cultures from newborn not-treated rat. 3 day old rats were sacrificed by decapitation, followed by removing the brain cortices. Primary cultures of astrocytes were prepared and cultured as previously described. Cells were grown in high-glucose Dulbecco's modified Eagle's medium (DMEM), containing 10% fetal bovine serum (FBS), 1 mM pyruvate, 2 mM glutamine, and 25 μg/ml gentamycin in 95% air-5% CO2. Confluent cultures were shaken at 225 rpm overnight and the medium was changed the next morning; this was repeated a total of three times. After the third overnight shaking, the cells were trypsinized and cultured for 24 h in 10 μM cytosine arabinoside. After reaching confluence again the cells were subcultured into 12-well clusters and grown until becoming confluent again. The confluent cells were detached, washed twice in PBS, and cell sediment was stored at –70°C until used for the binding assay.
In the competition binding experiments, astrocyte cells were incubated together in the presence of different histaminergic ligands in the concentration range from 0.01 nM– 100 μM under the same incubation conditions as above. The concentration of ^3H-tiotidine used was 5 nM. The binding reaction was rapidly terminated and the bound ligand was separated from the unbound by vacuum filtration. The radioactivity trapped on the GF/C glass fiber filters was counted in a liquid scintillation counter (Microbeta, Perkin Elmer, USA).
(§2) The binding experiments were routinely carried out in triplicate and each experiment was repeated at least twice. The results are expressed as means ± SEM. The binding parameters (KD, Bmax, and IC50) were calculated by a non-linear regression method using software Prism6 version 6.00, GraphPad Software Inc. (San Diego, USA). A comparison of the data among the groups was carried out using Student`s unpaired t-test with Welch correction, where two groups of data were compared. Differences were considered significant at p < 0.05.

histamine H2 receptor [2] = target: T1, histamine H2 receptor; assay: ^3H-tiotidine saturation binding assay; conditions: cultured neonatal rat astrocytes; for Kd: read-out: equilibrium dissociation constant (KD)
Text: as §1
0.1 mg of astrocyte cell protein was incubated for 15 minutes at 25°C in 0.15M Na^+/K^+ -phosphate buffer (pH 7.4) or in 0.15M Na^+/K^+ -phosphate buffer made using D2O instead of miliQ water (pH 7.4) in a total volume of 0.25 mL with the indicated concentrations of ^3H-tiotidine (1–15 nM), with a specific activity of 82.2 Ci/mmol. Specific binding represented the difference between total and non-specific binding (binding in the presence of 1 μM cimetidine).
as §2

[3] = MP2/6–31++G(2d,2p) and Langevin dipole calculated value; cited from earlier work
[4] = regular phosphate buffer (control)

T1 sequence (P25102 whole entry): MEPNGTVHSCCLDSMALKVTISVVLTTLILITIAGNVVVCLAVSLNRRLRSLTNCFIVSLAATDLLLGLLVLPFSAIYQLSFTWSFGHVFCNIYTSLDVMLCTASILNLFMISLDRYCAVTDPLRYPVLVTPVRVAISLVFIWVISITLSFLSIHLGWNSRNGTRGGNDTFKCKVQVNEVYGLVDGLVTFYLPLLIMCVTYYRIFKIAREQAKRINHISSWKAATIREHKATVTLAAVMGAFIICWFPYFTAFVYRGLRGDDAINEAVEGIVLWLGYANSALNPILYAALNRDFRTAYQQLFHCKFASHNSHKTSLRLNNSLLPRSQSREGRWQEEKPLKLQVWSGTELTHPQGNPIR

**Q.** With `Cc1ncc(CCN)[nH]1` [2-methylhistamine] as the compound, how does the IC50 (histamine H2 receptor [1]) read?
**A.** The IC50 was 4.17 nM.

**Q.** Which “maximal binding capacity (Bmax)” value (histamine H2 receptor [2]; deuterated medium (D2O)) does the source give for `CN=C(NC#N)NCCSCc1csc(N=C(N)N)n1` [^3H-tiotidine] here?
**A.** Its value is 17.1 ± 2.7 fmol/mg protein.

**Q.** What about the Kd (histamine H2 receptor [2]; deuterated medium (D2O)) of the same compound?
**A.** The Kd was 7.4 ± 2.4 nM.

**Q.** And the “maximal binding capacity (Bmax)” value (histamine H2 receptor [2]; [4])?
**A.** The value was 18.6 ± 1.7 fmol/mg protein.

**Q.** And the Kd (histamine H2 receptor [2]; [4])?
**A.** The Kd was 4.7 ± 1 nM.

**Q.** For `NCCc1c[nH]cn1` [deuterated histamine], which IC50 (histamine H2 receptor [1]; deuterated (D), read-out: reported measured value (ligand binding constant)) is on record?
**A.** The IC50 was 16 nM.

**Q.** Which binding free energy (histamine H2 receptor [1]; deuterated (D), from measured value 16 nM) does the source give for `[2H]N([2H])CCc1cn([2H])cn1` [deuterated histamine] here?
**A.** Its binding free energy is “–10.59 kcal/mol”.

**Q.** For `NCCc1c[nH]cn1` [histamine], which binding free energy (histamine H2 receptor [1]; control (H), from measured value 56 nM) is on record?
**A.** The binding free energy was “–9.86 kcal/mol”.

**Q.** What about the IC50 (histamine H2 receptor [1]; control (H), read-out: reported measured value (ligand binding constant)) of the same compound?
**A.** Its IC50 is 56 nM.

**Q.** And the “ΔEINTER(exp) ΔΔE(H2O–D2O); experimental difference in binding free energy upon deuteration” value (histamine H2 receptor [1]; ΔGBIND(H→D) = −RT ln(KD/KH))?
**A.** Its value is 0.73 kcal mol^–1.

**Q.** What about the hydration free energy [3] of the same compound?
**A.** The hydration free energy was “–68.6 kcal mol^–1”.

Source: publication PMC4861267 (PLoS ONE, 2016)
